The values below are quoted from earlier work in patent publication US7608126B1, “Method for horticulture plant rejuvenation” (priority 2006, dated 2009).

On to `C[C@]12CC[C@H](O)CC1=CC[C@@H]1[C@@H]2CC[C@]2(C)C(=O)CC[C@@H]12` [DHEA, dehydroepiandrosterone], for which the solubility in water result was “not very soluble in water”.
